Experimental data as given in the supplement of paper PMC4862054.
One block for each compound: values may come before it.

Experiments:
Conditions in all cases: 72 h
[1] = test system: MDA-MB-468
Outline: (§1)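 The plates used were 384-well plates holding compound at 5 concentrations in 10-fold steps across a compound-specific 10,000-fold range, into which breast cancer cell lines were seeded in 20 µl suspension. Following 72 h incubation, CellTox Green fluorescence was read at 485/520 nm, and CellTiter-Glo luminescence was read after 10 min at room temperature. Normalisation on each plate used 0.1 % DMSO and a positive kill control. Dose-response curves gave the EC50, which was censored at the top concentration.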

[2] = test system: MFM-223
Description: (§2)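 Drug sensitivity and resistance testing (DSRT) of breast cancer cell lines in 384-well plates, 5 concentrations in 10-fold dilutions over a compound-specific 10,000-fold range. After 72 h, cytotoxicity was read by CellTox Green fluorescence and viability by CellTiter-Glo luminescence (multiplexed), normalised to DMSO and benzethonium chloride controls. EC50 is the inflection point of the fitted dose-response curve (bottom asymptote free, so it can be relative for partial curves) and is censored at the highest tested concentration. Rows with DSS 0 (no meaningful response) were excluded.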

[3] = test system: MDA-MB-231
Description: as §2

[4] = test system: MCF-10A
Description: as §2

[5] = test system: MDA-MB-436
Description: as §2

[6] = test system: CAL-120
Description: as §2

[7] = test system: HDQ-P1
Outline: (§3)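 After 72 h on 384-well plates pre-loaded with compound in 5 µl medium, breast cancer cell lines seeded in 20 µl were assayed for viability with 2.5 µl CellTiter-Blue at 37 °C for 2 h, read at 560/590 nm. Each plate was quality-checked by Z'-factor and normalised to vehicle and a positive kill control. EC50 comes from the fitted percent-inhibition dose-response curve, censored at the top concentration, and rows scoring zero for drug sensitivity were left out.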

[8] = test system: MFM-223; remark: listed apart in the source
Outline: as §3

[9] = test system: MDA-MB-231; remark: listed apart in the source
Outline: as §3

[10] = test system: SK-BR-3
Outline: as §3

[11] = test system: BT-474
Outline: as §3

[12] = test system: HCC1599
Outline: as §3

[13] = test system: MDA-MB-436; remark: listed apart in the source
Outline: as §3

[14] = test system: Hs578T
Outline: as §3

[15] = test system: BT-549
Outline: as §3

[16] = test system: HCC1143
Outline: as §3

[17] = test system: CAL-120; remark: listed apart in the source
Outline: as §3

[18] = test system: HCC1937
Outline: as §3

[19] = test system: MDA-MB-468; remark: listed apart in the source
Outline: as §3

[20] = test system: HDQ-P1; remark: listed apart in the source
Outline: as §1

[21] = test system: MFM-223; remark: listed apart in the source
Outline: as §1

[22] = test system: CAL-51
Outline: as §1

[23] = test system: CAL-148
Outline: as §1

[24] = test system: MDA-MB-231; remark: listed apart in the source
Outline: as §1

[25] = test system: MCF-10A; remark: listed apart in the source
Outline: as §1

[26] = test system: SK-BR-3; remark: listed apart in the source
Outline: as §1

[27] = test system: MDA-MB-453
Outline: as §1

[28] = test system: BT-474; remark: listed apart in the source
Outline: as §1

[29] = test system: CAL-85-1
Outline: as §1

[30] = test system: HCC1599; remark: listed apart in the source
Outline: as §1

[31] = test system: DU-4475
Outline: as §1

[32] = test system: MDA-MB-436; remark: listed apart in the source
Outline: as §1

[33] = test system: Hs578T; remark: listed apart in the source
Outline: as §1

[34] = test system: BT-549; remark: listed apart in the source
Outline: as §1

[35] = test system: HCC1143; remark: listed apart in the source
Outline: as §1

[36] = test system: CAL-120; remark: listed apart in the source
Outline: as §1

[37] = test system: HCC1937; remark: listed apart in the source
Outline: as §1

[38] = test system: HDQ-P1; remark: listed apart in the source
Description: as §2

[39] = test system: CAL-148; remark: listed apart in the source
Description: as §2

[40] = test system: DU-4475; remark: listed apart in the source
Description: as §2

EC50, CellTiter-Glo [1]: > 10000 nM
Compound: CCn1c(C(=O)N(C2CC2)C2CC2)cc2c3c(ncn3C)c(Nc3cc(C)n(C)n3)nc21

EC50, CellTiter-Blue viability [9]: 376 nM
EC50, CellTiter-Blue viability [10]: 156 nM
EC50, CellTiter-Blue viability [11]: 552 nM
EC50, CellTiter-Blue viability [12]: 1590 nM
EC50, CellTiter-Blue viability [13]: 776 nM
EC50, CellTiter-Blue viability [15]: 2470 nM
EC50, CellTiter-Blue viability [16]: 1780 nM
EC50, CellTiter-Blue viability [18]: 349 nM
EC50, CellTiter-Blue viability [19]: 748 nM
EC50, CellTiter-Glo [24]: 740 nM
EC50, CellTiter-Glo [26]: 529 nM
EC50, CellTiter-Glo [27]: 149 nM
EC50, CellTiter-Glo [28]: 575 nM
EC50, CellTiter-Glo [30]: 752 nM
EC50, CellTiter-Glo [32]: 507 nM
EC50, CellTiter-Glo [34]: 499 nM
EC50, CellTiter-Glo [35]: 644 nM
EC50, CellTiter-Glo [37]: 350 nM
EC50, CellTiter-Glo [1]: 397 nM
Compound: COc1ccc(S(=O)(=O)Nc2cccnc2Nc2ccc(O)cc2)cc1 [ABT-751]
EC50, CellTox Green [2]: 5430 nM
EC50, CellTox Green [3]: 497 nM
EC50, CellTox Green [4]: 6830 nM
EC50, CellTox Green [5]: 116 nM
EC50, CellTox Green [6]: > 10000 nM
EC50, CellTiter-Blue viability [7]: 245 nM
EC50, CellTiter-Blue viability [8]: 2130 nM
EC50, CellTiter-Blue viability [14]: 218 nM
EC50, CellTiter-Blue viability [17]: 295 nM
EC50, CellTiter-Glo [20]: 231 nM
EC50, CellTiter-Glo [21]: 1010 nM
EC50, CellTiter-Glo [22]: 6520 nM
EC50, CellTiter-Glo [23]: 6970 nM
EC50, CellTiter-Glo [25]: 5770 nM
EC50, CellTiter-Glo [29]: 264 nM
EC50, CellTiter-Glo [31]: 1510 nM
EC50, CellTiter-Glo [33]: 773 nM
EC50, CellTiter-Glo [36]: 218 nM

EC50, CellTiter-Glo [24]: 278 nM
EC50, CellTiter-Glo [27]: 4490 nM
EC50, CellTiter-Glo [28]: 83.8 nM
EC50, CellTiter-Glo [34]: 5.97 nM
EC50, CellTiter-Glo [1]: 563 nM
Compound: CN[C@@H](C)C(=O)N[C@H]1CN(C(=O)CC(C)C)CC[C@H]2CC[C@@H](C(=O)NC(c3ccccc3)c3ccccc3)N2C1=O [AT-406]
EC50, CellTox Green [38]: 5140 nM
EC50, CellTox Green [3]: 81.2 nM
EC50, CellTiter-Glo [29]: 826 nM

EC50, CellTiter-Blue viability [12]: 213 nM
Compound: Cc1cc(Nc2nc(N[C@@H](C)c3ncc(F)cn3)ncc2Cl)[nH]n1 [AZD1480]
EC50, CellTox Green [2]: 872 nM
EC50, CellTiter-Blue viability [8]: 64.8 nM
EC50, CellTiter-Glo [21]: 94.6 nM

EC50, CellTiter-Blue viability [9]: 1170 nM
EC50, CellTiter-Blue viability [13]: 91.7 nM
EC50, CellTiter-Blue viability [15]: 2180 nM
EC50, CellTiter-Blue viability [16]: 2570 nM
EC50, CellTiter-Blue viability [18]: 1370 nM
EC50, CellTiter-Blue viability [19]: 6660 nM
EC50, CellTiter-Glo [30]: 881 nM
EC50, CellTiter-Glo [32]: 3040 nM
EC50, CellTiter-Glo [1]: 3880 nM
Compound: CNC(=O)c1ccccc1Sc1ccc2c(/C=C/c3ccccn3)n[nH]c2c1 [Axitinib]
EC50, CellTiter-Blue viability [7]: 474 nM
EC50, CellTiter-Blue viability [8]: 163 nM
EC50, CellTiter-Glo [20]: 4770 nM
EC50, CellTiter-Glo [21]: 348 nM
EC50, CellTiter-Glo [22]: 465 nM
EC50, CellTiter-Glo [36]: 3570 nM

Compound: CC(O)(CS(=O)(=O)c1ccc(F)cc1)C(=O)Nc1ccc(C#N)c(C(F)(F)F)c1 (centres undefined) [Bicalutamide]
EC50, CellTiter-Blue viability [19]: > 10000 nM
EC50, CellTiter-Glo [27]: > 10000 nM

EC50, CellTiter-Glo [24]: 4020 nM
EC50, CellTiter-Glo [26]: 4180 nM
EC50, CellTiter-Glo [27]: 5370 nM
EC50, CellTiter-Glo [28]: 3980 nM
EC50, CellTiter-Glo [30]: > 10000 nM
EC50, CellTiter-Glo [32]: 4110 nM
EC50, CellTiter-Glo [34]: 1670 nM
EC50, CellTiter-Glo [37]: > 10000 nM
EC50, CellTiter-Glo [1]: 4750 nM
Compound: CC1(COc2ccc3c(c2)ncn3-c2ccc3cccc(N4CCC(N)CC4)c3n2)COC1 [Crenolanib]
EC50, CellTox Green [38]: 1040 nM
EC50, CellTox Green [39]: 2530 nM
EC50, CellTox Green [3]: 2710 nM
EC50, CellTox Green [4]: 3370 nM
EC50, CellTox Green [40]: > 10000 nM
EC50, CellTox Green [5]: 29.3 nM
EC50, CellTiter-Glo [20]: 5070 nM
EC50, CellTiter-Glo [22]: 2630 nM
EC50, CellTiter-Glo [23]: 4350 nM
EC50, CellTiter-Glo [25]: 4780 nM
EC50, CellTiter-Glo [29]: 3970 nM
EC50, CellTiter-Glo [31]: 3330 nM
EC50, CellTiter-Glo [33]: 3340 nM
